Marks after values point to notes of the source that are not given here.
Experiments:
CD36 mRNA = test: Real-time quantitative PCR of CD36 mRNA in foam cells; assay type: cell-based; settings: 25 μM, rat foam cells
Procedure: FIG. 1 provides effects of a ginsenoside compound K (C-K, 25 μM) and pyrrolidine dithiocarbamate (PDTC, 25 μM) on the foam cell CD36 mRNA expression. a: P<0.05, vs foam cell group; b: P<0.05, vs PDTC. PDTC (25 μM) C-K (25 μM) (n=5).
(1) Material and reagents (the same as Example 2).
(2) real-time quantitative PCR analysis (a reference method: Zhang Yiguan, Li Xiaohui, Fan Jishan, Zhang Haigang, Li Shuhui, Liao Wenqiang, Pang Yan, Jia Yi. Total panax notoginsenosides suppress atherosclerosis formation in rats by means of antiinflammatory and blood fat regulating action. Progress in Modern Biomedicine. 2007, 27(11): 1601-1607).
Data was expressed as x±s, variance analysis were carried out between groups by SPSS 13.0 software.

[1] = system: macrophage-derived foam cells of rat abdominal cavity; test: Assay of amount of TC and CE in ox-LDL induced macrophage-derived foam cells; assay type: cell-based; settings: 25 μM, 48 hours, rat foam cells, x ± s, n = 5
Procedure: 1. Experiment animal: SD rats, male, 200-250 g, bought from the third Military Medical University Experiment Animal Center.
2. Reagents: RPMI 1640 culture medium free of phenol red bought from Invitrogen company; LDL (115 mg/mL) bought from Peking Union Medical College; total cholesterol kit and free cholesterol kit bought from Shanghai Mind Bioengineering Limited Company; ginsenoside compound K (hereinafter being called C-K for short. White powders, purity 99%), provided by Kunming Nuowei Jinshen Bioengineering limited company supply (batch number: NTGA070521, details see China invention patent 200710066011. X “a method of preparing rare ginsenoside compound K by streptomycete fermentation of Sanchi saponins”).
LDL was placed into PBS comprising 10 μM Cu^2+, dialysed at 37° C. for 12 h, then was placed into PBS comprising 0.01% EDTA, and dialysed at 4° C. for 24 hours before stopping oxidization, then was subjected to filtration sterilization, and stored for use.
4. Culture of macrophage and establishment of foam cells model (available literature: Jia Yi, Li Xiaohui, Xing Mao, Hei Xuefeng, Liu Ya, He Cuiyao. Studies on affect of various combinations of 3 sorts of monomers in total panax notoginsenosides on formation of mouse macrophage-derived foam cells. Journal of China Pharmacy, 2008, 19 (2), 881-883.)
each rat were intraperitoneally injected with 2 mL RPMI 1640 culture solution free of serum and phenol red, and it was sacrificed by cervical dislocation after 20 minutes, and was soaked in 75% ethanol for 10 minutes, then rat's belly was cut open, and fluids in abdominal cavity were collected, and centrifugated at 750 r/min for 5 minutes, and then cells were collected, and cells concentrations were adjusted to […] by using RPMI 1640 culture solution which were free of phenol red and comprised 10% Fetal Calf Serum. 10 pieces of 6 wells plate was added 1 mL cells suspension per well, and was placed into an incubator of 5% CO2 at 37 °C, and cultured for two hours, then supernatant was discarded, and nonadhesive cells was washed by using PBS. Original culture medium was discarded. Culture was carried out for 48 hours after adding 5 mL culture medium comprising 20 mg/L ox-LDL, and thereby foam cells were formed.
[…] were divided into ox-LDL model group, pyrrolidine dithiocarbamate (PDTC) (drugs source: Sigma), control group and C-K interference group. Each group had 5 pieces of plates. […]
Culture solution was aspirated, and lipid in foam cells was extracted by Folch method (reference: Folch J et al, A simple method for the isolation and purification of total lipides from animal tissues. J Biol Chem, 1957, 226 (1): 497-509), according to direction for use of kit.
Data was expressed as x±s, and variance analysis was carried out between groups by SPSS 13.0 software.

S=C(S)N1CCCC1 [PDTC, pyrrolidine dithiocarbamate, reference compound]
change of CD36 mRNA expression in foam cells compared with model group (CD36 mRNA): increased expression
CE in foam cells ([1]; ox-LDL model group 15.24 ± 2.38): 30.63 ± 3.17^a
CE/TC in foam cells ([1]; ox-LDL model group 59.56 ± 2.96): 50.29 ± 3.54^a %
TC in foam cells ([1]; ox-LDL model group 87.20 ± 2.19): 60.81 ± 2.62^a

— patent publication US20110212909A1, “Use of Ginsenoside Compound K in the Preparation of a Medicament for the Prevention and Treatment of Atherosclerosis” (priority 2008, published 2011)
